# From ChEMBL document CHEMBL2380246, “Structure-activity relationships of hybrid annonaceous acetogenins: powerful growth inhibitory effects of their connecting groups between heterocycle and hydrophobic carbon chain bearing THF ring on human cancer cell lines” (2013)
# Legend:
# Type in all cases: functional
# NCI-H226 = assay: Growth inhibition of human NCI-H226 cells after 48 hrs by sulforhodamine B assay; settings: NCI-H226, 48 h
# MKN-74 = assay: Growth inhibition of human MKN74 cells after 48 hrs by sulforhodamine B assay; settings: MKN-74, 48 h
# ACHN = assay: Growth inhibition of human ACHN cells after 48 hrs by sulforhodamine B assay
# SF-295 = assay: Growth inhibition of human SF295 cells after 48 hrs by sulforhodamine B assay; settings: SF-295, 48 h
# St-4 = assay: Growth inhibition of human St-4 cells after 48 hrs by sulforhodamine B assay; settings: St-4, 48 h
# OVCAR-5 = assay: Growth inhibition of human OVCAR5 cells after 48 hrs by sulforhodamine B assay; settings: OVCAR-5, 48 h
# OVCAR-3 = assay: Growth inhibition of human OVCAR3 cells after 48 hrs by sulforhodamine B assay; settings: OVCAR-3, 48 h
# OVCAR-8 = assay: Growth inhibition of human OVCAR8 cells after 48 hrs by sulforhodamine B assay; settings: OVCAR-8, 48 h
# HT-29 = assay: Growth inhibition of human HT-29 cells after 48 hrs by sulforhodamine B assay; settings: HT-29, 48 h
# DU-145 = assay: Growth inhibition of human DU145 cells after 48 hrs by sulforhodamine B assay; settings: DU-145, 48 h
# MDA-MB-231 = assay: Growth inhibition of human MDA-MB-231 cells after 48 hrs by sulforhodamine B assay; settings: MDA-MB-231, 48 h
# SNB-75 = assay: Growth inhibition of human SNB75 cells after 48 hrs by sulforhodamine B assay; settings: SNB-75, 48 h
# PC-3 = assay: Growth inhibition of human PC3 cells after 48 hrs by sulforhodamine B assay; settings: PC-3, 48 h
# [1] = Growth inhibition of human HBC4 cells after 48 hrs by sulforhodamine B assay; settings: HBC4, 48 h
# HCT-116 = assay: Growth inhibition of human HCT116 cells after 48 hrs by sulforhodamine B assay; settings: HCT-116, 48 h
# DMS-273 = assay: Growth inhibition of human DMS273 cells after 48 hrs by sulforhodamine B assay; settings: DMS-273, 48 h
# [2] = Growth inhibition of human MKN1 cells after 48 hrs by sulforhodamine B assay; settings: MKN-1, 48 h
# SK-OV-3 = assay: Growth inhibition of human SKOV3 cells after 48 hrs by sulforhodamine B assay; settings: SK-OV-3, 48 h
# SNB-78 = assay: Growth inhibition of human SNB78 cells after 48 hrs by sulforhodamine B assay; settings: SNB-78, 48 h
# [3] = Growth inhibition of human HBC5 cells after 48 hrs by sulforhodamine B assay; settings: HBC5, 48 h
# NCI-H460 = assay: Growth inhibition of human NCI-H460 cells after 48 hrs by sulforhodamine B assay; settings: NCI-H460, 48 h
# KM12 = assay: Growth inhibition of human KM12 cells after 48 hrs by sulforhodamine B assay; settings: KM12, 48 h
# [4] = Growth inhibition of human RXF631L cells after 48 hrs by sulforhodamine B assay; settings: RXF 631, 48 h
# LOX IMVI = assay: Growth inhibition of human LOXIMVI cells after 48 hrs by sulforhodamine B assay
# [5] = Growth inhibition of human HCC2998 cells after 48 hrs by sulforhodamine B assay; settings: HCC 2998, 48 h
# OVCAR-4 = assay: Growth inhibition of human OVCAR4 cells after 48 hrs by sulforhodamine B assay; settings: OVCAR-4, 48 h
# MKN-45 = assay: Growth inhibition of human MKN45 cells after 48 hrs by sulforhodamine B assay; settings: MKN-45, 48 h
# SF-268 = assay: Growth inhibition of human SF268 cells after 48 hrs by sulforhodamine B assay; settings: SF-268, 48 h
# SF-539 = assay: Growth inhibition of human SF539 cells after 48 hrs by sulforhodamine B assay; settings: SF-539, 48 h
# U-251 = assay: Growth inhibition of human U251 cells after 48 hrs by sulforhodamine B assay; settings: U-251, 48 h
# HCT-15 = assay: Growth inhibition of human HCT15 cells after 48 hrs by sulforhodamine B assay; settings: HCT-15, 48 h
# DMS-114 = assay: Growth inhibition of human DMS114 cells after 48 hrs by sulforhodamine B assay; settings: DMS-114, 48 h
# [6] = Growth inhibition of human BSY1 cells after 48 hrs by sulforhodamine B assay; settings: BSY-1, 48 h
# A549 = assay: Growth inhibition of human A549 cells after 48 hrs by sulforhodamine B assay; settings: A549, 48 h
# MKN-28 = assay: Growth inhibition of human MKN28 cells after 48 hrs by sulforhodamine B assay; settings: MKN-28, 48 h
# MKN-7 = assay: Growth inhibition of human MKN7 cells after 48 hrs by sulforhodamine B assay; settings: MKN-7, 48 h
# NCI-H23 = assay: Growth inhibition of human NCI-H23 cells after 48 hrs by sulforhodamine B assay; settings: NCI-H23, 48 h
# NCI-H522 = assay: Growth inhibition of human NCI-H522 cells after 48 hrs by sulforhodamine B assay; settings: NCI-H522, 48 h
# MCF7 = assay: Growth inhibition of human MCF7 cells after 48 hrs by sulforhodamine B assay; settings: MCF7, 48 h
GI50 (NCI-H226) [µM],GI50 (MKN-74) [µM],GI50 (ACHN) [µM],GI50 (OVCAR-5) [µM],GI50 (OVCAR-3) [µM],GI50 (OVCAR-8) [µM],GI50 (HT-29) [µM],GI50 (DU-145) [µM],GI50 (MDA-MB-231) [µM],GI50 (PC-3) [µM],GI50 (SK-OV-3) [µM],GI50 (NCI-H460) [µM],SMILES,GI50 (SF-295) [µM],GI50 (St-4) [µM],GI50 (SNB-75) [µM],GI50 [1] [µM],GI50 (DMS-273) [µM],GI50 [2] [µM],GI50 (SNB-78) [µM],GI50 [3] [µM],other results
75.9,> 100,> 100,> 100,> 100,> 100,> 100,> 100,> 100,> 100,> 100,> 100,CCCCCCCCCCCC[C@@H](O)[C@H]1CC[C@H]([C@H](O)CCCCCCCCCCC(=O)Nc2ccnn2C)O1,57.5,> 100,> 100,> 100,> 100,> 100,> 100,> 100,GI50 (MKN-28): 18.2 µM; GI50 (MKN-7): 20.9 µM; GI50 (NCI-H23): 26.9 µM; GI50 (HCT-116): 64.6 µM; GI50 (NCI-H522): 28.8 µM; GI50 (KM12): > 100 µM; GI50 [4]: > 100 µM; GI50 (LOX IMVI): > 100 µM; GI50 [5]: > 100 µM; GI50 (OVCAR-4): > 100 µM; GI50 (MKN-45): > 100 µM; GI50 (SF-268): > 100 µM; GI50 (SF-539): > 100 µM; GI50 (U-251): > 100 µM; GI50 (MCF7): > 100 µM; GI50 (HCT-15): > 100 µM; GI50 (DMS-114): 3.31 µM; GI50 [6]: 95.5 µM; GI50 (A549): > 100 µM
40.7,3.89,24,> 100,77.6,30.9,> 100,> 100,8.51,18.2,> 100,8.13,CCCCCCCCCCCC[C@@H](O)[C@H]1CC[C@H]([C@H](O)CCCCCCCCCCNC(=O)c2ccnn2C)O1,10,18.2,50.1,> 100,5.75,43.7,> 100,17,GI50 (NCI-H23): 0.0525 µM; GI50 (NCI-H522): 1.41 µM; GI50 (KM12): > 100 µM; GI50 [4]: > 100 µM; GI50 [5]: > 100 µM; GI50 (OVCAR-4): 22.9 µM; GI50 (MKN-45): 7.41 µM; GI50 (SF-268): > 100 µM; GI50 (SF-539): 3.72 µM; GI50 (U-251): > 100 µM; GI50 (MCF7): 3.24 µM; GI50 (HCT-15): > 100 µM; GI50 (A549): 12.9 µM
9.77,1.7,11,14.1,10,6.03,8.13,12.9,8.91,2.19,15.8,5.5,CCCCCCCCCCCC[C@@H](O)[C@H]1CC[C@H]([C@H](O)CCCCCCCCCCN(C)C(=O)c2ccnn2C)O1,2,6.76,15.8,10,3.31,5.5,12,3.09,GI50 (MKN-28): 0.302 µM; GI50 (MKN-7): 0.0513 µM; GI50 (NCI-H23): 0.24 µM; GI50 (HCT-116): 0.794 µM; GI50 (NCI-H522): 2.29 µM; GI50 (KM12): 4.17 µM; GI50 [4]: 11 µM; GI50 (LOX IMVI): 1.41 µM; GI50 [5]: 12 µM; GI50 (OVCAR-4): 10 µM; GI50 (MKN-45): 11 µM; GI50 (SF-268): 15.1 µM; GI50 (SF-539): 12 µM; GI50 (U-251): 10 µM; GI50 (MCF7): 5.01 µM; GI50 (HCT-15): 10 µM; GI50 (DMS-114): 0.0347 µM; GI50 [6]: 0.501 µM; GI50 (A549): 8.51 µM

SMILES,GI50 (NCI-H226) [µM],GI50 (MKN-74) [µM],GI50 (ACHN) [µM],GI50 (OVCAR-5) [µM],GI50 (OVCAR-3) [µM],GI50 (OVCAR-8) [µM],GI50 (HT-29) [µM],GI50 (DU-145) [µM],GI50 (MDA-MB-231) [µM],GI50 (PC-3) [µM],GI50 (SK-OV-3) [µM],GI50 (NCI-H460) [µM],GI50 (SF-295) [µM],GI50 (St-4) [µM],GI50 (SNB-75) [µM],GI50 [1] [µM],GI50 (DMS-273) [µM],GI50 [2] [µM],GI50 (SNB-78) [µM],GI50 [3] [µM],other results
CCCCCCCCCCCC[C@@H](O)[C@H]1CC[C@H]([C@H](O)CCCCCCCCCCCCC2=C[C@H](C)OC2=O)O1 [REL-SOLAMIN],> 100,> 100,> 100,> 100,> 100,> 100,> 100,> 100,> 100,> 100,> 100,> 100,39.8,> 100,> 100,> 100,> 100,> 100,> 100,> 100,GI50 (HCT-116): > 100 µM; GI50 (KM12): > 100 µM; GI50 [4]: > 100 µM; GI50 (LOX IMVI): 28.8 µM; GI50 [5]: > 100 µM; GI50 (OVCAR-4): > 100 µM; GI50 (MKN-45): > 100 µM; GI50 (SF-268): > 100 µM; GI50 (SF-539): > 100 µM; GI50 (U-251): > 100 µM; GI50 (HCT-15): > 100 µM; GI50 (DMS-114): 4.27 µM; GI50 [6]: > 100 µM; GI50 (A549): > 100 µM
